Data from patent US20230331683A1, “INHIBITORS OF SPINSTER HOMOLOG 2 (SPNS2) FOR USE IN THERAPY” (University of Virginia Patent Foundation, priority 2020, published 2023).
Where a name gives a salt, the structure may show the parent alone.

These compounds were tested against mouse SPNS2 (Mus musculus (Mouse), UniProt Q91VM4) (assay: S1P Transporter Assay (S1P release from whole cells expressing SPNS2)). Conditions: in vitro inhibition against SPNS2; HeLa cells expressing mouse SPNS2, S1P release into media after 18 hours; compounds as their pharmaceutical salts.
Sequence of mouse SPNS2 (Q91VM4 whole entry): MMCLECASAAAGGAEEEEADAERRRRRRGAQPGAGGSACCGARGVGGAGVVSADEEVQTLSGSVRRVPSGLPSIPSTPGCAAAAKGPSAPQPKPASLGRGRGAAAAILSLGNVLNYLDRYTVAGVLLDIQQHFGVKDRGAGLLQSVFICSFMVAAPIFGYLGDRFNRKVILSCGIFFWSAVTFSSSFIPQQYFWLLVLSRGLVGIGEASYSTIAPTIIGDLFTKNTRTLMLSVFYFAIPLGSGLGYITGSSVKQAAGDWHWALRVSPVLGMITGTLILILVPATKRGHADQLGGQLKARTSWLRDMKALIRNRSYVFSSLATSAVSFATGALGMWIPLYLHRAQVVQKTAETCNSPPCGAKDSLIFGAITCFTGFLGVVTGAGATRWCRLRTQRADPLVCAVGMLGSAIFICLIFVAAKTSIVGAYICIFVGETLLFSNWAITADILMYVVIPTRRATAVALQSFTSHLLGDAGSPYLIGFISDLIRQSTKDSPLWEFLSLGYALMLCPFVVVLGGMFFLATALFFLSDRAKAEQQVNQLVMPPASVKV
Type: cell-based
Method: Transporter assays are vectorial and therefore require measurement of the transported analyte in different compartments. The S1P transporter SPNS2 only exports S1P, which obviates measuring uptake of S1P into transporter-expressing cells. Thus, transporter activity was determined by quantifying S1P release from whole cells expressing SPNS2. SPNS2 inhibitor potency was assessed using whole cell assays. HeLa cells expressing mouse SPNS2 were used to determine inhibitor potency (IC50). Cells were plated onto 12 well plates and assayed when the cell monolayers became confluent. Cell growth media (RPMI-1640 containing 10% fetal bovine serum) was replaced with 2 mL of serum-free media (RPMI-1640) containing fatty acid free bovine serum albumin (BSA) (0.2 % w/v) and supplemented with 4-deoxypyridoxine (DOP) (1 mM), NaF (2 mM), Na3VO4 (0.2 mM) to inhibit S1P degradation. Test articles (1 × 10-9 - 1 × 10^-4 M) were assayed in duplicate or triplicate. After 18 hours, media was collected, an internal recovery standard (0.005 mL of 5 × 10^-7 M deuterated (d7) S 1P in methanol) was added, the BSA was precipitated with trichloroacetic acid and the bound S1P extracted with methanol. S1P and S1P-d7 were measured by liquid chromatography mass spectrometry. Inhibitor potency at the human SPNS2 ortholog was determined by an analogous assay using U-937 cells, which endogenously express human SPNS2.
`CCCCCCCCCCc1ccc(NC(=O)O[C@H]2CCNC2)cc1` [Compound 23b, (S)-pyrrolidin-3-yl (4-decylphenyl)carbamate Hydrochloride] gave an IC50 of over 2 µM.
`CCCCCCCCCCc1ccc(NC(=O)O[C@@H]2CCNC2)cc1` [Compound 23c, (R)-pyrrolidin-3-yl (4-decylphenyl)carbamate Hydrochloride] gave an IC50 of at most 2 µM.
`CCCCCCCCCCc1ccc(C(=O)N2CCNCC2)cc1` [Compound 26c, Decylphenyl)(piperazin-1-yl)methanone Hydrochloride] was tested, and the IC50 was at most 2 µM.
`CCCCCCCCCCc1ccc(C(=O)NCCCN)cc1` [Compound 26d, N-aminopropyl)-4-decylbenzamide Hydrochloride] showed an IC50 of at most 2 µM.
`CCCCCCCCCCc1ccc(C(=O)NCCN)cc1` [Compound 26e, N-aminoethyl)-4-decylbenzamide Hydrochloride] showed an IC50 of over 2 µM.
For `CCCCCCCCCCc1ccc2nc(CCCN)[nH]c2c1` [Compound 31, 3-decyl-1H-benzo[d]imidazol-2-yl)propan-1-amine Hydrochloride], the IC50 was over 2 µM.
Work on `CCCCCCCCCCc1ccc(NC(=O)N[C@H]2CCNC2)cc1` [Compound 34, (S)(4-decylphenyl)-3-(pyrrolidin-3-yl)urea Hydrochloride] yielded an IC50 of at most 2 µM.
With `CCCCCCCCCCc1ccc(NC(=O)N2CCNCC2)cc1` [Compound 35, N-decylphenyl)piperazine-1-carboxamide Hydrochloride] the IC50 was at most 2 µM.
`CCCCCCCCCCc1ccc2oc(NCC3CCNCC3)nc2c1` [Compound 36, 5-decyl-N-(piperidin-4-ylmethyl)benzo[d]oxazol-2-amine] was tested, and the IC50 was over 2 µM.
`CCCCCCCCCCc1ccc(C(=O)NC2CCNCC2)cc1` [Compound 39, 4-decyl-N-(piperidin-4-yl)benzamide Hydrochloride] gave an IC50 of at most 2 µM.
